Consider 9 molecules from ChEMBL document CHEMBL1146804, “Estrogen receptor ligands. Part 6: Synthesis and binding affinity of dihydrobenzodithiins” (Bioorg Med Chem Lett, 2004).

One test concerns the target Estrogen receptor beta (Homo sapiens, UniProt Q92731).
For test [1], the system named is MCF7. The test can be described thus: Inhibition of MCF-7 cancer cell proliferation. It counts as functional, cell-based. The note with it: Homo sapiens.
For another test, the target named is T1, Estrogen receptor (Homo sapiens, UniProt P03372).
T1 sequence (P03372 whole entry): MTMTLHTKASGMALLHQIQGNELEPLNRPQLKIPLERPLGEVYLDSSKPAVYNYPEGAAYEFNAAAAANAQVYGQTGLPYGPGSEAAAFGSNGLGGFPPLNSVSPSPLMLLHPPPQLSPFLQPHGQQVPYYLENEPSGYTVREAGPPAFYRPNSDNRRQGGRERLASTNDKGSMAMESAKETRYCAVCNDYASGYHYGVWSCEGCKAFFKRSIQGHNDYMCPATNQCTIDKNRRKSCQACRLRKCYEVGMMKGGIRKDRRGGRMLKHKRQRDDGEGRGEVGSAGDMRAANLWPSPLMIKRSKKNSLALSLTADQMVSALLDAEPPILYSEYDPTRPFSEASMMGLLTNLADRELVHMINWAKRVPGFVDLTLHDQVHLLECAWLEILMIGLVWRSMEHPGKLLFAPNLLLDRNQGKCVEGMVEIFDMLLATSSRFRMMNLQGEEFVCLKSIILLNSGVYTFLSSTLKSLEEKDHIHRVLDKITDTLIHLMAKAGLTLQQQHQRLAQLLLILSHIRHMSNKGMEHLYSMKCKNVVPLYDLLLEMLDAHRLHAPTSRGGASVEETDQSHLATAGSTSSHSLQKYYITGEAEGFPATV

For test [2], the system named is MCF7. Nature of the test: Inhibition of MCF-7 cancer cell proliferation; Average of 7 measurements. It counts as functional, cell-based. The note with it: Homo sapiens.
Test [3] concerns MCF7. Nature of the test: Inhibition of MCF-7 cancer cell proliferation; Average of 5 measurements. The note with it: Homo sapiens. The class given is functional, cell-based.
Test [4] concerns MCF7. Nature of the test: Inhibition of MCF-7 cancer cell proliferation; Average of 2 measurements. The class given is functional, cell-based. The note with it: Homo sapiens.

Estrogen receptor beta, sequence (Q92731 whole entry): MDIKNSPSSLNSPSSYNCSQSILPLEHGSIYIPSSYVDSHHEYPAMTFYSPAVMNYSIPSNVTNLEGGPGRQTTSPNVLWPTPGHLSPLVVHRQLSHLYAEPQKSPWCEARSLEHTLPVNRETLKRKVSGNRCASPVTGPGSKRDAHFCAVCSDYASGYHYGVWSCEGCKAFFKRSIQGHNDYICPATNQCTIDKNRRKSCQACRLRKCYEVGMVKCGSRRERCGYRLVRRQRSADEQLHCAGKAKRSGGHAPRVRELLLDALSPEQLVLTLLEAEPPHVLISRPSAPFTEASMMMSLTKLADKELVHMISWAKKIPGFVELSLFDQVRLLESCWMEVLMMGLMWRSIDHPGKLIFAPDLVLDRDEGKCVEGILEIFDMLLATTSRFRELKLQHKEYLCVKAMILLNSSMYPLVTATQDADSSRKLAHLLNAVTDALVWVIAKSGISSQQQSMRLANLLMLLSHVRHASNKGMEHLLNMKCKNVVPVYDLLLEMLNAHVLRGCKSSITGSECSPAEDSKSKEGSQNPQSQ
Description for Estrogen receptor beta: Binding affinity for human estrogen receptor beta

For `Oc1ccc([C@H]2Sc3cc(O)ccc3S[C@H]2c2ccc(OCCN3CCCC3)c(Br)c2)cc1`, the IC50 on Estrogen receptor beta is 87 nM; in the test on MCF7 [1], 114 nM; at Estrogen receptor, 4 nM.

For `Oc1ccc([C@H]2Sc3cc(O)ccc3S[C@H]2c2ccc(OCCN3CCCCC3)c(Br)c2)cc1`, the values for the half-maximal inhibitory concentration (IC50) at Estrogen receptor beta, in the test with MCF7 [1] and at Estrogen receptor were 111 nM, 67 nM and 5 nM, respectively.

Regarding `Oc1cccc([C@H]2Sc3cc(O)ccc3S[C@H]2c2ccc(OCCN3CCCCC3)c(Br)c2)c1`, the half-inhibitory concentration (IC50) at Estrogen receptor beta worked out at 161 nM; with MCF7 [1], 152 nM; on Estrogen receptor, 4 nM.

For the molecule `Oc1ccc([C@H]2Sc3cc(O)ccc3S[C@H]2c2ccc(OCCN3CCCC3)cc2)cc1`, the IC50 on Estrogen receptor beta turned out to be 266 nM; with MCF7 [1], 123 nM; at Estrogen receptor, 18 nM.

In the case of `Oc1ccc([C@H]2Sc3cc(O)ccc3O[C@H]2c2ccc(OCCN3CCCCC3)cc2)cc1`, the half-maximal inhibitory concentration (IC50) in the test on MCF7 [2] came out at 3 nM.

Regarding `Oc1cccc([C@H]2Sc3cc(O)ccc3O[C@H]2c2ccc(OCCN3CCCC3)cc2)c1`, the figures for the IC50 against Estrogen receptor beta, in the test on MCF7 [3] and against Estrogen receptor were 38 nM, 0.6 nM and 1 nM, respectively.

For the molecule `Oc1ccc([C@H]2Sc3cc(O)ccc3S[C@H]2c2ccc(OCCN3CCCCC3)cc2)cc1`, the results for the IC50 on Estrogen receptor beta, in the test with MCF7 [1] and at Estrogen receptor were 326 nM, 112 nM and 21 nM, respectively.

On to `Oc1cccc([C@H]2Sc3cc(O)ccc3S[C@H]2c2ccc(OCCN3CCCCC3)cc2)c1`, for which the 50% inhibitory concentration (IC50) on Estrogen receptor beta was 583 nM; in the test on MCF7 [1], 564 nM; on Estrogen receptor, 15 nM.

With `Oc1cccc([C@H]2Sc3cc(O)ccc3O[C@H]2c2ccc(OCCN3CCCCC3)cc2)c1`, the half-maximal inhibitory concentration (IC50) is 0.4 nM with MCF7 [4] and 4 nM against Estrogen receptor.

Broadly, the IC50 is the concentration needed to halve the response being measured. Read a high IC50 as lower potency.
